# Reference: patent publication US6506772B1, “Substituted [1,2,4]triazolo[1,5a]pyridine derivatives with activity as adenosine receptor ligands” (Hoffmann-La Roche Inc., priority 2000, dated 2003)
# Legend:
# [1] = target: T1, HA1 adenosine receptor (Homo sapiens, UniProt P30542); assay: Human adenosine A1 receptor affinity (Ki hA1); format: binding
# T1 sequence (P30542 1-326): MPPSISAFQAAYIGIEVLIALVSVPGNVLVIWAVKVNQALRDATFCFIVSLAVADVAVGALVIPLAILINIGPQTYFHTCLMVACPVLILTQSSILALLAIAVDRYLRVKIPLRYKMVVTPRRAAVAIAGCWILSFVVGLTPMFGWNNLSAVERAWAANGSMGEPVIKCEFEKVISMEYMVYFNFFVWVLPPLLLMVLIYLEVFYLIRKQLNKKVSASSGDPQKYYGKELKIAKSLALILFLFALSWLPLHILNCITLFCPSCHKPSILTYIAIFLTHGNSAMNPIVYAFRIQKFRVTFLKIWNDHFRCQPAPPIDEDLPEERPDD
# [2] = target: T2, human adenosine A2A receptor (Homo sapiens, UniProt P29274); assay: Human adenosine A2A receptor [3H]-SCH-58261 binding assay; conditions: for selectivity (A1/A2a): ratio KiHA1 divided by KiHA2A; for Ki: recombinant human A2A in CHO cell membranes, [3H]-SCH-58261, Cheng-Prussoff, read-out: Ki hA2A
# T2 construct: expressed in transfected cells; host or cells: CHO cells, Semliki Forest virus expression system; membrane preparation
# T2 sequence (P29274 whole entry): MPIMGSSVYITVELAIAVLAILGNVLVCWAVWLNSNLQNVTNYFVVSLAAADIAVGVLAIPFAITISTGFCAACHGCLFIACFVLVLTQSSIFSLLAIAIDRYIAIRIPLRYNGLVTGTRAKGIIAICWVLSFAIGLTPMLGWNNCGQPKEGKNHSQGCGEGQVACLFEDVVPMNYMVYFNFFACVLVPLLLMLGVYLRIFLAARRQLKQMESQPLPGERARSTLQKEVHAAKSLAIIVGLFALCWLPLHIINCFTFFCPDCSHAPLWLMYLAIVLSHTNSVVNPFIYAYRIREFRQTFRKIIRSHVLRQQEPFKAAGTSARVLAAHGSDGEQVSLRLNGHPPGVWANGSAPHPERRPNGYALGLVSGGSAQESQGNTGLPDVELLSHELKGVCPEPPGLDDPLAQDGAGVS
SMILES,Ki [1] [nM],selectivity (A1/A2a) [2],Ki [2] [nM]
"CCN(C(=O)c1cc(N)n2nc(-c3nccs3)nc2c1)C1CCCCC1 [Example 383, 5-Amino-2-thiazol-2-yl-[1,2,4]triazolo[1,5-a]pyridine-7-carboxylic acid cyclohexyl-ethyl-amide]",1130,13.9,81.2
"COC[C@@H]1CC[C@@H](COC)N1C(=O)c1cc(N)n2nc(-c3ccc(Br)o3)nc2c1 [Example 387, [5 -Amino-2-(5-bromo-furan-2-yl)-[1,2,4]triazolo[1,5-a]pyridin-7-yl]-(S,S-2,5-bis-methoxymethyl-pyrrolidin-1-yl)-methanone]",2540,21.5,118
"CC(=O)NC1CCN(C(=O)c2cc(N)n3nc(-c4ccc(Br)o4)nc3c2)C1 (stereo not drawn) [Example 391, N-{1-[5-Amino-2-(5-bromo-furan-2-yl)-[1,2,4]triazolo[1,5-a]pyridine-7-carbonyl]-pyrrolidin-3-yl}-acetamide]",1460,27.6,53
"CCC1CCC(C)N(C(=O)c2cc(N)n3nc(-c4ccc(Br)o4)nc3c2)C1 (stereo not drawn) [Example 393, [5-Amino-2-(5-bromo-furan-2-yl)-[1,2,4]triazolo[1,5-a]pyridin-7-yl]-(5-ethyl-2-methyl-piperidin-1-yl)-methanone]",95.3,32.9,2.9
"COCCN(C)C(=O)c1cc(N)n2nc(-c3ccc(Br)o3)nc2c1 [Example 395, 5-Amino-2-(5-bromo-furan-2-yl)-[1,2,4]triazolo[1,5-a]pyridine-7-carboxylic acid (2-methoxy-ethyl)-methyl-amide]",295,44,6.7
"CCN(CCOC)C(=O)c1cc(N)n2nc(-c3ccc(Br)o3)nc2c1 [Example 396, 5-Amino-2-(5-bromo-furan-2-yl)-[1,2,4]triazolo[1,5-a]pyridine-7-carboxylic acid ethyl-(2-methoxy-ethyl)-amide]",170,48.7,3.5
"COCCN(C)C(=O)c1cc(N)n2nc(-c3nccs3)nc2c1 [Example 397, 5-Amino-2-thiazol-2-yl-[1,2,4]triazolo[1,5-a]pyridine-7-carboxylic acid (2-methoxy-ethyl)-methyl-amide]",5490,18.4,298
"COC[C@H]1CCCN1C(=O)c1cc(N)n2nc(-c3nccs3)nc2c1 [Example 401, (5-Amino-2-thiazol-2-yl-[1,2,4]triazolo[1,5-a]pyridin-7-yl)-(R-2-methoxymethyl-pyrrolidin-1-yl)-methanone]",3440,66.4,51.9
"CCC1CCC(C)N(C(=O)c2cc(N)n3nc(-c4nccs4)nc3c2)C1 (stereo not drawn) [Example 404, (5-Amino-2-thiazol-2-yl-[1,2,4]triazolo[1,5-a]pyridin-7-yl)-(5-ethyl-2-methyl-piperidin-1-yl)-methanone]",1250,13.3,94.3
"C#CCN(C)C(=O)c1cc(N)n2nc(-c3ccccn3)nc2c1 [Example 407, 5-Amino-2-pyridin-2-yl-[1,2,4]triazolo[1,5-a]pyridine-7-carboxylic acid methyl-prop-2-ynyl-amide]",1830,26.5,69.1
"Nc1cc(C(=O)N2CC=CC2)cc2nc(-c3ccccn3)nn12 [Example 408, (5-Amino-2-pyridin-2-yl-[1,2,4]triazolo[1,5-a]pyridin-7-yl)-(2,5-dihydro-pyrrol-1-yl)-methanone]",1370,14.9,91.8
"C=CCN(C)C(=O)c1cc(N)n2nc(-c3ccccn3)nc2c1 [Example 409, 5-Amino-2-pyridin-2-yl-[1,2,4]triazolo[1,5-a]pyridine-7-carboxylic acid allyl-methyl-amide]",1650,16.5,99.8
"CCN(C(=O)c1cc(N)n2nc(-c3ccccn3)nc2c1)C(C)C [Example 414, 5-Amino-2-pyridin-2-yl-[1,2,4]triazolo[1,5-a]pyridine-7-carboxylic acid ethyl-isopropyl-amide]",885,15.8,56
"CC1C=CC(C)N1C(=O)c1cc(N)n2nc(-c3ccccn3)nc2c1 (stereo not drawn) [Example 415, (5-Amino-2-pyridin-2-yl-[1,2,4]triazolo[1,5-a]pyridin-7-yl)-(2,5-dimethyl-2,5-dihydro-pyrrol-1-yl)-methanone]",274,3.6,75.4
"C=CCN(CC=C)C(=O)c1cc(N)n2nc(-c3ccccn3)nc2c1 [Example 416, 5-Amino-2-pyridin-2-yl-[1,2,4]triazolo[1,5-a]pyridine-7-carboxylic acid diallylamide]",835,17.4,48.1
"Nc1cc(C(=O)N2CCCCCC2)cc2nc(-c3ccccn3)nn12 [Example 417, (5-Amino-2-pyridin-2-yl-[1,2,4]triazolo[1,5-a]pyridin-7-yl)-azepan-1-yl-methanone]",532,31.5,16.9
"CC1CCCCN1C(=O)c1cc(N)n2nc(-c3ccccn3)nc2c1 (stereo not drawn) [Example 418, (5-amino-2-pyridin-2-yl-[1,2,4]triazolo[1,5-a]pyridin-7-yl)-(2-methyl-piperidin-1-yl)-methanone]",1020,24.2,42.4

# More lines, now with the values ahead:
Ki [1] [nM],selectivity (A1/A2a) [2],Ki [2] [nM],SMILES
330,12.4,26.7,"NC(=O)[C@@H]1CCCN1C(=O)c1cc(N)n2nc(-c3ccc(Br)o3)nc2c1 [Example 388, 1-[5-Amino-2-(5-bromo-furan-2-yl)-[1,2,4]triazolo[1,5-a]pyridine-7-carbonyl]-L-pyrrolidine-2-carboxylic acid amide]"
383,39.1,9.8,"NC(=O)[C@@H]1CCCN1C(=O)c1cc(N)n2nc(-c3ccc(Br)o3)nc2c1 [Example 389, 1-[5-Amino-2-(5-bromo-furan-2-yl)-[1,2,4]triazolo[1,5-a]pyridine-7-carbonyl]-D-pyrrolidine-2-carboxylic acid amide]"
813,98,8.3,"CN(C)C(=O)C1CCCN1C(=O)c1cc(N)n2nc(-c3ccc(Br)o3)nc2c1 (stereo not drawn) [Example 390, 1-[5-Amino-2-(5-bromo-furan-2-yl)-[1,2,4]triazolo[1,5-a]pyridine-7-carbonyl]-pyrrolidine-2-carboxylic acid dimethylamide]"
1780,51.2,34.7,"CC(=O)N(C)C1CCN(C(=O)c2cc(N)n3nc(-c4ccc(Br)o4)nc3c2)C1 (stereo not drawn) [Example 392, N-{1-[5-Amino-2-(5-bromo-furan-2-yl)-[1,2,4]triazolo[1,5-a]pyridine-7-carbonyl]-pyrrolidin-3-yl}-N-methyl-acetamide]"
417,37.9,11,"NC(=O)C1CCCN(C(=O)c2cc(N)n3nc(-c4ccc(Br)o4)nc3c2)C1 (stereo not drawn) [Example 394, 1-[5-Amino-2-(5-bromo-furan-2-yl)-[1,2,4]triazolo[1,5-a]pyridine-7-carbonyl]-piperidine-3-carboxylic acid amide]"
4460,53.3,83.7,"COC[C@@H]1CCCN1C(=O)c1cc(N)n2nc(-c3nccs3)nc2c1 [Example 400, (5-Amino-2-thiazol-2-yl-[1,2,4]triazolo[1,5-a]pyridin-7-yl)-(S-2-methoxymethyl-pyrrolidin-1-yl)-methanone]"
1000,23.2,43.3,"CC(C)CN(CC(C)C)C(=O)c1cc(N)n2nc(-c3nccs3)nc2c1 [Example 405, 5-Amino-2-thiazol-2-yl-[1,2,4]triazolo[1,5-a]pyridine-7-carboxylic acid diisobutylamide]"
3930,26.8,147,"CCN(C)C(=O)c1cc(N)n2nc(-c3ccccn3)nc2c1 [Example 406, 5-Amino-2-pyridin-2-yl-[1,2,4]triazolo[1,5-a]pyridine-7-carboxylic acid ethyl-methyl-amide]"
1410,22.6,62.3,"CC(C)N(C)C(=O)c1cc(N)n2nc(-c3ccccn3)nc2c1 [Example 411, 5-Amino-2-pyridin-2-yl-[1,2,4]triazolo[1,5-a]pyridine-7-carboxylic acid isopropyl-methyl-amide]"
3020,25.4,119,"CCCN(C)C(=O)c1cc(N)n2nc(-c3ccccn3)nc2c1 [Example 412, 5-Amino-2-pyridin-2-yl-[1,2,4]triazolo[1,5-a]pyridine-7-carboxylic acid methyl-propyl-amide]"
1430,37.8,37.8,"CC1CCCN1C(=O)c1cc(N)n2nc(-c3ccccn3)nc2c1 (stereo not drawn) [Example 413, (5-Amino-2-pyridin-2-yl-[1,2,4]triazolo[1,5-a]pyridin-7-yl)-(2-methyl-pyrrolidin-1-yl)-methanone]"
1600,35.5,44.9,"CC1CCCN(C(=O)c2cc(N)n3nc(-c4ccccn4)nc3c2)C1 (stereo not drawn) [Example 419, (5-Amino-2-pyridin-2-yl-[1,2,4]triazolo[1,5-a]pyridin-7-yl)-(3-methyl-piperidin-1-yl)-methanone]"
